Source: patent publication US20240158446A1, “CYCLIC COMPOUND HAVING SELECTIVE INHIBITORY ACTION ON KRAS OVER HRAS AND NRAS” (CHUGAI SEIYAKU KABUSHIKI KAISHA, priority 2021, published 2024)

Key:
[1] = target: GDP-bound HRAS wild-type protein (Homo sapiens, UniProt P01112); assay: Binding to HRAS by surface plasmon resonance (SPR), Single Cycle Kinetics; settings: SPR, GDP-bound HRAS wild-type protein vs GDP-bound KRAS wild-type protein
[2] = target: GDP-bound NRAS wild-type protein (Homo sapiens, UniProt P01111); assay: Binding to NRAS by surface plasmon resonance (SPR), Single Cycle Kinetics; settings: SPR, GDP-bound NRAS wild-type protein vs GDP-bound KRAS wild-type protein
Sequence of GDP-bound NRAS wild-type protein (P01111 whole entry): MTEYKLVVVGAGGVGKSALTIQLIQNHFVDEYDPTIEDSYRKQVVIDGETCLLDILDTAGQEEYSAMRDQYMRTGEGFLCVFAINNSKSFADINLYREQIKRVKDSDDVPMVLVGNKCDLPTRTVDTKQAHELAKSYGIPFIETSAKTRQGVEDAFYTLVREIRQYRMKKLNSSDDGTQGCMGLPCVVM

[3] = test system: human lung cancer strain NCI-H441;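 also: cell proliferation inhibition after four days measured by CellTiter-Glo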
[4] = target: GDP-bound KRAS wild-type protein (Homo sapiens, UniProt P01116); assay: Binding to KRAS by surface plasmon resonance (SPR), Single Cycle Kinetics; settings: SPR, Single Cycle Kinetics, GDP-bound KRAS wild-type protein; read-out: KRAS KD
Sequence of GDP-bound KRAS wild-type protein (P01116 whole entry): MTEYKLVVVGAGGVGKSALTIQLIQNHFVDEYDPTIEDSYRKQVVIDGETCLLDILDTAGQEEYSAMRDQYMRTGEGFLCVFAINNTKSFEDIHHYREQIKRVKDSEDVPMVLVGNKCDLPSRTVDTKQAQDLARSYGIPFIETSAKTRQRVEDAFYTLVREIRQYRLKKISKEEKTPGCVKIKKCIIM

Sequence of GDP-bound HRAS wild-type protein (P01112 whole entry): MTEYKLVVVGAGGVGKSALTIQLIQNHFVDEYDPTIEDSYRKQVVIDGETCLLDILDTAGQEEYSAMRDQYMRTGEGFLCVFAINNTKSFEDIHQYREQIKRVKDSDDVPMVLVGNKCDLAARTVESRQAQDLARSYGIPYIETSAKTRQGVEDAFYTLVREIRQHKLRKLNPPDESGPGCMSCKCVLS

Row | SMILES | HRAS/KRAS (ratio of KD value for HRAS to KD value for KRAS) [1] | NRAS/KRAS (ratio of KD value for NRAS to KD value for KRAS) [2] | IC50 [3] | Kd [4]
1 | CCCOC[C@H]1C(=O)N[C@@H]([C@@H](C)CC)C(=O)N(C)CC(=O)N(C)[C@H]2C/C=C\CCN(C2=O)[C@@H](CC2CCC(F)(F)CC2)C(=O)N(C)CC(=O)N[C@@H](CCc2cc(F)c(C(F)(F)F)c(F)c2)C(=O)N2C[C@@H](C)C[C@H]2C(=O)NC2(CC(C)(C)C2)C(=O)N(C)[C@@H](C(CC)CC)C(=O)N(C)[C@H](C(=O)N(C)C)CC(=O)N1C [PP2490] | A (a compound having 10 or more and less than 20 is denoted as A) | AA (a compound having 20 or more is denoted as AA) | 162 nM | 1.7 nM
2 | CCO[C@@H]1C[C@H]2C(=O)NC3(CC(C)(C)C3)C(=O)N(C)[C@@H](C(CC)CC)C(=O)N(C)[C@H](C(=O)N(C)C)CC(=O)N(C)[C@@H](C(C)C)C(=O)N[C@@H]([C@@H](C)CC)C(=O)N(C)CC(=O)N(C)[C@H]3C/C=C\CCN(C3=O)[C@@H](CC3CCC(F)(F)CC3)C(=O)N(C)CC(=O)N[C@@H](CCc3ccc(C(F)(F)F)c(Cl)c3)C(=O)N2C1 [PP2492] | A (a compound having 10 or more and less than 20 is denoted as A) | AA (a compound having 20 or more is denoted as AA) | 76.7 nM | 2.4 nM
3 | CCC(CC)[C@H]1C(=O)N(C)[C@H](C(=O)N(C)C)CC(=O)N(C)[C@@H](CC2CC2)C(=O)N[C@@H]([C@@H](C)CC)C(=O)N(C)CC(=O)N(C)[C@H]2C/C=C\CCN(C2=O)[C@@H](CC2CCC(F)(F)CC2)C(=O)N(C)CC(=O)N[C@@H](CCc2ccc(C(F)(F)F)c(OC)c2)C(=O)N2C[C@@H](C)C[C@H]2C(=O)NC2(CC(C)(C)C2)C(=O)N1C [PP2494] | A (a compound having 10 or more and less than 20 is denoted as A) | A (a compound having 10 or more and less than 20 is denoted as A) | 39.6 nM | 1.8 nM
4 | CCO[C@@H]1C[C@H]2C(=O)NC3(CC(C)(C)C3)C(=O)N(C)[C@@H](C(CC)CC)C(=O)N(C)[C@H](C(=O)N(C)C)CC(=O)N(C)[C@@H](CC3CC3)C(=O)N[C@@H]([C@@H](C)CC)C(=O)N(C)CC(=O)N(C)[C@H]3C/C=C\CCN(C3=O)[C@@H](CC3CCC(F)(F)CC3)C(=O)N(C)CC(=O)N[C@@H](CCc3ccc(C(F)(F)F)c(Cl)c3)C(=O)N2C1 [PP2495] | A (a compound having 10 or more and less than 20 is denoted as A) | A (a compound having 10 or more and less than 20 is denoted as A) | 17.4 nM | 0.84 nM
5 | CCC(CC)[C@H]1C(=O)N(C)[C@H](C(=O)N(C)C)CC(=O)N(C)[C@@H](C(C)C)C(=O)N[C@@H]([C@@H](C)CC)C(=O)N(C)CC(=O)N(C)[C@H]2C/C=C\CCN(C2=O)[C@@H](CC2CCC(F)(F)CC2)C(=O)N(C)CC(=O)N[C@@H](CCc2cc(F)c(C(F)(F)F)c(F)c2)C(=O)N2C[C@@H](C)C[C@H]2C(=O)NC2(CC(C)(C)C2)C(=O)N1C [PP2496] | A (a compound having 10 or more and less than 20 is denoted as A) | A (a compound having 10 or more and less than 20 is denoted as A) | 97.3 nM | 6.2 nM
6 | CCC[C@H]1C(=O)N[C@@H]([C@@H](C)CC)C(=O)N(C)CC(=O)N(C)[C@H]2C/C=C\CCN(C2=O)[C@@H](CC2CCC(F)(F)CC2)C(=O)N(C)CC(=O)N[C@@H](CCc2ccc(C(F)(F)F)c(OC)c2)C(=O)N2C[C@@H](C)C[C@H]2C(=O)NC2(CC(C)(C)C2)C(=O)N(C)[C@@H](C(CC)CC)C(=O)N(C)[C@H](C(=O)N(C)C)CC(=O)N1C [PP2497] | A (a compound having 10 or more and less than 20 is denoted as A) | A (a compound having 10 or more and less than 20 is denoted as A) | 84.8 nM | 1.5 nM
7 | CCC[C@H]1C(=O)N[C@@H]([C@@H](C)CC)C(=O)N(C)CC(=O)N(C)[C@H]2C/C=C\CCN(C2=O)[C@@H](CC2CCC(F)(F)CC2)C(=O)N(C)CC(=O)N[C@@H](CCc2ccc(C(F)(F)F)c(Cl)c2)C(=O)N2C[C@H](OCC)C[C@H]2C(=O)NC2(CC(C)(C)C2)C(=O)N(C)[C@@H](C(CC)CC)C(=O)N(C)[C@H](C(=O)N(C)C)CC(=O)N1C [PP2498] | A (a compound having 10 or more and less than 20 is denoted as A) | A (a compound having 10 or more and less than 20 is denoted as A) | 21.9 nM | 0.67 nM
8 | CCC(CC)[C@H]1C(=O)N(C)[C@H](C(=O)N(C)C)CC(=O)N(C)[C@@H](CC2CC2)C(=O)N[C@@H]([C@@H](C)CC)C(=O)N(C)CC(=O)N(C)[C@H]2C/C=C\CCN(C2=O)[C@@H](CC2CCC(F)(F)CC2)C(=O)N(C)CC(=O)N[C@@H](CCc2cc(F)c(C(F)(F)F)c(F)c2)C(=O)N2C[C@@H](C)C[C@H]2C(=O)NC2(CC(C)(C)C2)C(=O)N1C [PP2500] | A (a compound having 10 or more and less than 20 is denoted as A) | A (a compound having 10 or more and less than 20 is denoted as A) | 125 nM | 1.7 nM
9 | CCCOC[C@H]1C(=O)N[C@@H]([C@@H](C)CC)C(=O)N(C)CC(=O)N(C)[C@H]2C/C=C\CCN(C2=O)[C@@H](CC2CCCCC2)C(=O)N(C)CC(=O)N[C@@H](CCc2cc(F)c(C(F)(F)F)c(F)c2)C(=O)N2C[C@H](OCC)C[C@H]2C(=O)NC2(CC(C)(C)C2)C(=O)N(C)[C@@H](C(CC)CC)C(=O)N(C)[C@H](C(=O)N(C)C)CC(=O)N1C [PP2501] | A (a compound having 10 or more and less than 20 is denoted as A) | AA (a compound having 20 or more is denoted as AA) | 180 nM | 1.8 nM
10 | CC[C@H](C)[C@@H]1NC(=O)[C@H](COC)N(C)C(=O)C[C@@H](C(=O)N(C)C)N(C)C(=O)[C@H](C2CCCC2)N(C)C(=O)C2(CC(C)(C)C2)NC(=O)[C@@H]2C[C@H](C)CN2C(=O)[C@H](CCc2ccc(C(F)(F)F)c(Cl)c2)NC(=O)CN(C)C(=O)[C@H](Cc2ccc(C)cc2)N2CC/C=C\C[C@@H](C2=O)N(C)C(=O)CN(C)C1=O [PP2502] | A (a compound having 10 or more and less than 20 is denoted as A) | A (a compound having 10 or more and less than 20 is denoted as A) | 7.9 nM | 0.065 nM
11 | CCOC[C@H]1C(=O)N[C@@H]([C@@H](C)CC)C(=O)N(C)CC(=O)N(C)[C@H]2C/C=C\CCN(C2=O)[C@@H](Cc2ccc(C)cc2)C(=O)N(C)CC(=O)N[C@@H](CCc2ccc(C(F)(F)F)c(OC)c2)C(=O)N2C[C@@H](C)C[C@H]2C(=O)NC2(CC(C)(C)C2)C(=O)N(C)[C@@H](C2CCCC2)C(=O)N(C)[C@H](C(=O)N(C)C)CC(=O)N1C [PP2505] | B (a compound having 3 or more and less than 10 is denoted as B) | A (a compound having 10 or more and less than 20 is denoted as A) | 17.2 nM | 0.13 nM
